Test results published in article PMC12518639, “Apomorphine is a novel necroptosis inhibitor targeting mixed lineage kinase domain-like protein oligomerization” (Cell Death Discovery, 2025).
Structures can show the parent of a compound that is named as a salt. Where two headings read alike, the source gives them in different places.

How the values were obtained:
ulcerative colitis = tested on: ulcerative colitis; set-up: method as in PMID 34389633; conditions: phase II trial; cited from earlier work
Wt-hMLKL = target: T1, Wt-hMLKL (Homo sapiens, UniProt Q8NB16); experiment: SPR competition assay of NSA with Ox-APO; format: binding; conditions: 200 μM NSA, 750 μM Ox-APO
T1 construct: purchased Abcam ab241453
T1 sequence (Q8NB16 1-471): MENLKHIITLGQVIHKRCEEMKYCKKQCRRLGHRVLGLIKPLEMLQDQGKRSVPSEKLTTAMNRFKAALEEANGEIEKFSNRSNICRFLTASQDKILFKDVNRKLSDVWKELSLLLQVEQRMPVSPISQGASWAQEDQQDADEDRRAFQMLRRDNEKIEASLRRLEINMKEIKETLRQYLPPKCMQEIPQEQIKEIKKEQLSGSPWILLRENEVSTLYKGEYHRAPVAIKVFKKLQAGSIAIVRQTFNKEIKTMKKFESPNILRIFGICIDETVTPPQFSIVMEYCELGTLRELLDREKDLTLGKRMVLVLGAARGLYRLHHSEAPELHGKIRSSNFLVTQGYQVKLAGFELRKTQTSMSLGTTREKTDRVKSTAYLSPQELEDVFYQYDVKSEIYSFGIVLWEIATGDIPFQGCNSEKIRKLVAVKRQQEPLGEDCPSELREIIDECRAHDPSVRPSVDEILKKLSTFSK
Description: Fig. S4 Competition assay of NSA with Ox-APO by SPR. Wt-hMLKL was immobilized on a CM5 chip and 750 μM Ox-APO was overflowed in the presence or absence of 200 μM NSA.

mouse MLKL = tested on: mouse MLKL; set-up: method as in PMID 28827318; conditions: cited from earlier work
p-MLKL and p-RIP1 = experiment: Western blot of cytosol and membrane fractions; format: cell-based, human; conditions: THP-1, TBZ, 20 μM
Description: (§1) The cells were harvested and lysed in 1× RIPA buffer (R4100-010, GenDEPOT, Katy, TX, USA) containing protease (P3100-001, GenDEPOT) and phosphatase (1862495, Thermo Fisher Scientific) inhibitors. WCLs were then centrifuged at 20,000×g for 30 min at 4 °C and subjected to non-reducing or reducing 8–12% SDS-PAGE gel electrophoresis. The membrane was blocked with 5% non-fat milk in TBS and probed with antibodies. Antibodies to hMLKL (14993S), mMLKL (97705S), phospho-hMLKL (Ser358) (91689S), phospho-mMLKL (Ser345) (37333S), phospho-hRIP1 (Ser166) (65746S), mRIP1 (3493S), phospho-mRIP1 (Ser321) (38662S), phospho-hRIP3 (Ser227) (93654), mRIP3 (95702S), p-mRIP3 (Thr231/Ser232) (91702S), and LDH (2012S) (Cell Signaling Technology, Danvers, MA, USA), and GAPDH (LF-PA0018, Abfrontier, S. Korea), hRIP1 (ab72139, Abcam, Cambridge, UK), hRIP3 (sc-135170, Santa Cruz Biotechnology, Dallas, TX, USA), HMGB1 (ab78923, Abcam), and LAMP1 (ab24170, Abcam) antibodies were used.
Cell membrane fractionation was performed to determine whether MLKL oligomers were retained in the cell membrane fraction. Briefly, THP-1 cells were harvested and resuspended in 20 mM TBS (pH 7.4) containing 10 mM KCl, 1 mM MgCl2, protease inhibitor (P3100-001, GenDEPOT), and phosphatase inhibitor (1862495, Thermo Fisher Scientific). The cell suspension was passed through a 22-gauge needle and centrifuged at 20,000×g for 15 min and stored as the cytoplasmic fraction. The pellet was resuspended in lysis buffer and stored as the crude membrane fraction.
(§2) Fig. S1 Assessment of p-MLKL inhibition to identify MLKL-targeting molecules. (A) Quantification graph corresponding to Fig. 1C. THP-1 cells were treated with TBZ in the presence of secondarily selected compounds (S1–S72, 20 μM). Whole-cell lysates (WCLs) were collected and subjected to Western blot analysis under reducing conditions using antibodies against p-MLKL, MLKL, and GAPDH. The p-MLKL/MLKL ratio was quantified and compared to that of TBZ-treated cells. Data represent the mean of three independent experiments. (B) Quantification graph corresponding to Fig. 1D. THP-1 cells were treated with TBZ in the presence of third-round selected compounds (S1–S62, 20 μM). Cytosolic and membrane fractions were collected and analyzed by Western blot under reducing conditions. The levels of p-MLKL and p-RIP1 were normalized to LDH (cytosolic marker) and LAMP1 (membrane marker), respectively. Quantified ratios were compared to those of TBZ-treated cells (n = 3 independent experiments).

THP-1-HMGB1-Lucia cells = experiment: TBZ-induced necroptosis screening by HMGB1-luciferase release; format: cell-based, human; conditions: 8 h, read-out: % Inhibition (luciferase activity relative to TBZ-treated supernatant); for activity at 20 µM: Homo sapiens
Description: (§3) To identify potential inhibitors of the necroptosis pathway targeting MLKL or the process of p-MLKL pore formation on the membrane, we screened a library of 2150 compounds, including FDA-approved drugs and those in phase 1–3 clinical trials, using THP-1-HMGB1-Lucia™ cells expressing the HMGB1-luciferase fusion protein. The cells were treated with a necroptosis-inducing mixture containing TNF-α, BV6, and Z-VAD-FMK (TBZ) in addition to the compound library (Fig. 1A). The supernatants were harvested to measure luciferase activities for necroptosis. The luciferase activities of cell supernatants treated with TBZ alone were considered as the maximum release (100%) of HMGB1-luciferase. NEC-1, a known RIP1 inhibitor used in both humans and mice, was used as a positive control. […] Next, we performed a propidium iodide (PI) uptake assay to exclude cytotoxic compounds using THP-1 cells. Then, we selected candidate molecules that were arbitrarily less than 30% of those treated with TBZ. […] Next, the inhibition levels of p-MLKL were tested to select MLKL-targeting molecules (Figs. 1C and S1A). Compounds that reduced p-MLKL levels to less than 30% of TBZ-treated controls were considered as potential inhibitors of MLKL phosphorylation. Conversely, compounds that maintained p-MLKL levels above 70% were selected because they are presumed to prevent the formation of pores in the plasma membrane by interfering with oligomerization.
A clinical chemical library containing 2150 items (Korea Chemical Bank, South Korea), under phase 1–3 clinical trials, including FDA-approved drugs, was used to screen for necroptosis inhibitors. Each chemical was dissolved in DMSO and diluted to 20 μM in DPBS for treatment.
THP-1-HMGB1-Lucia^TM cells were pretreated with the pan-caspase inhibitor Z-VAD-FMK (50 μM, tlrl-vad, InvivoGen) and each chemical for 1 h, and followed by TNF-α (100 ng/mL, TNF0501, NKMAXBio, Seongnam, S. Korea) and Smac mimetic BV6 (10 μM, B1332-5, Biovision, Santa Clara, CA, USA), termed TBZ mixture, were added for necroptosis screening. The RIP1 inhibitor, NEC-1 (1846, Biovision), and MLKL inhibitor, NSA (432531-71-0, Sigma-Aldrich, St. Louis, MO, USA), were used as controls. The cell supernatant was harvested to measure HMGB1 levels using a luciferase assay kit (E1500, Promega, Madison, WI, USA) by a luminometer (Centro XS3 LB 960, Berthold Technologies, Bad Wildbad, Germany). The inhibition of necroptosis (%) was calculated as: (sample-treated data – medium-only data) × 100/(TBZ-treated data – medium-only data). APO [STK088477, (6aS)-6-methyl-5,6,6a,7-tetrahydro-4H-dibenzo[de,g]quinoline-10,11-diol, Vitas-M Laboratory, Hong Kong] was stored at −70 °C after aliquoting with DMSO. APO was used after dilution in DPBS. APO is susceptible to auto-oxidation in solution in the presence of light and air. DPBS containing 5 mM DTT was used for Re-APO. Ox-APO was prepared by incubating APO in DPBS at 25 °C for 24 h in the presence of light and air, followed by removal of any precipitate by filtration through 0.2 μm.

p-MLKL = experiment: Western blot of phosphorylated MLKL in whole cell lysates; format: cell-based, human; conditions: Homo sapiens, read-out: p-MLKL/MLKL ratio relative to TBZ-treated cells (% Value)
Description: as §3, §1
as §2, with “THP-1 cells were treated with TBZ in the presence of secondarily selected compounds (S1–S72, 20 μM).” left out, “THP-1 cells were treated with TBZ in the presence of third-round selected compounds (S1–S62, 20 μM).” left out

[1] = 20 μM compound with TBZ, TBZ alone = 100, DPBS = 0
[2] = THP-1, TBZ and 20 μM compound, 8 h, whole cell lysates

Row | Compound | activity at 20 µM (p-MLKL; [2]) [%] | activity at 20 µM (THP-1-HMGB1-Lucia cells; [1]) [%] | also measured
1 | CN1C(=O)[C@@H](NC(=O)c2nnc(Cc3ccccc3)[nH]2)COc2ccccc21 [GSK2982772] |  |  | therapeutic benefit (ulcerative colitis): failed to show significant therapeutic benefit; tolerability in humans (ulcerative colitis): well tolerated
2 | COc1nccnc1NS(=O)(=O)c1ccc(NC(=O)/C=C/c2ccc([N+](=O)[O-])s2)cc1 [NSA, Necrosulfonamide] |  |  | competition for binding to hMLKL (Wt-hMLKL): competed with Ox-APO; activity against mouse MLKL (mouse MLKL): ineffective
3 | CN1CCN(c2ccc(Nc3c4ccccc4nc4ccccc34)cc2)CC1 [S1, JP-1302] |  |  | RIP1 phosphorylation (p-MLKL and p-RIP1): seemed to inhibit; activity (THP-1-HMGB1-Lucia cells; [1]): 0.4%
4 | COc1cc2ncnc(Nc3cccc(Cl)c3)c2cc1OC [S3, Tyrphostin] | 70 | 7.5 | effect on p-MLKL levels in both cytosolic and membrane fractions (p-MLKL and p-RIP1): almost no effect
5 | CCCCC1C(=O)N(c2ccccc2)N(c2ccc(O)cc2)C1=O (stereo not shown) [S4, Oxyphenbutazone] | 38 | 0 | 
6 | Cc1ccc(Nc2nccc(N(C)c3ccc4c(C)n(C)nc4c3)n2)cc1S(N)(=O)=O [S10, Pazopanib] | 86 | 9.4 | 
7 | CC(=O)Oc1ccccc1C(=O)Nc1ncc([N+](=O)[O-])s1 [S15, Nitazoxanide] | 100 | 1.2 | effect on p-MLKL levels in both cytosolic and membrane fractions (p-MLKL and p-RIP1): almost no effect
8 | CC1(C)CC[C@]2(C(=O)O)CC[C@]3(C)[C@H](C(=O)C=C4[C@@]5(C)C=C(C#N)C(=O)C(C)(C)[C@@H]5CC[C@]43C)[C@@H]2C1 [S16, Bardoxolone] | 0 | 0 | 
9 | Cc1ccc(C(=O)Nc2ccc(CN3CCN(C)CC3)c(C(F)(F)F)c2)cc1C#Cc1cnc2cccnn12 [S17, Ponatinib] |  |  | activity at 20 µM (p-MLKL; THP-1, 8 h): 2%; activity at 20 µM (THP-1-HMGB1-Lucia cells): 4.5%
10 | O=C(Nc1ccc(Br)cc1)c1cccc(S(=O)(=O)Nc2ccc(Br)cc2)c1 [S19, N-(4-Bromophenyl)-3-[[(4-bromophenyl)amino]sulfonyl]benzamide] | 55 | 5.3 | 
11 | Cc1ncc(-c2ccnc(Nc3ccc(S(C)(=O)=O)cc3)n2)n1C(C)C [S28, AZD 5438] | 55 | 0 | 
12 | CC(C)(C)c1nc(-c2cccc(NS(=O)(=O)c3c(F)cccc3F)c2F)c(-c2ccnc(N)n2)s1 [S31, Dabrafenib] | 0 | 4.5 | 
13 | C=C1C(=O)O[C@@H]2/C=C(\C)CC/C=C(\C)CC[C@@H]12 [S35, Costunolide] | 30 | 9 | 
14 | C=C1C(=O)O[C@H]2[C@H]1CC/C(C)=C/CC[C@@]1(C)O[C@@H]21 [S38, Parthenolide] | 40 | 0 | 
15 | COc1cc2nccc(Oc3ccc(NC(=O)Nc4cc(C)on4)c(Cl)c3)c2cc1OC [S46, Tivozanib] | 18 | 9 | 
16 | O=C1c2c(O)ccc(O)c2C(=O)c2c(NCCNCCO)ccc(NCCNCCO)c21 [S58, Mitoxantrone hydrochloride] | 39 | 7.6 | 
17 | O=C(N[C@H](CO)[C@H](O)c1ccc([N+](=O)[O-])cc1)C(Cl)Cl [S69, Chloramphenicol] |  | 0 | 
18 | CN(C)CCOC(c1ccccc1)c1ccccc1 [S70, Diphenhydramine] |  | 19.1 | 
19 | CCCc1c(-c2ccc(O)cc2)nn(-c2ccc(O)cc2)c1-c1ccc(O)cc1 [S71, PPT] |  |  | activity (THP-1-HMGB1-Lucia cells; [1]): 1.5%
20 | O=C(Nc1ccc([N+](=O)[O-])cc1Cl)c1cc(Cl)ccc1O [S72, Niclosamide] | 35 | 0.9 | 
21 | JTE 013 [S11] |  |  | activity (THP-1-HMGB1-Lucia cells; [1]): 5.8%
